Source: publication PMC9358669, “Native metabolomics identifies the rivulariapeptolide family of protease inhibitors” (Nature Communications, 2022)
Where “and” joins values, the source holds several entries; their conditions need not be identical. Equal values may be shown once. Read-outs that look alike come from different tables or passages of the source.

Key:
Chymotrypsin [1] = system: Chymotrypsin; parameters: method as in earlier work; details: Supplementary Table 5, Top 50 chymotrypsin inhibitors among Ahp-cyclodepsipeptides; cited from earlier work
Proteinase K = target: T1, Proteinase K (Parengyodontium album, UniProt P06873); assay: Proteinase K inhibition, fluorogenic substrate assay (Suc-Ala-Ala-Pro-Phe-AMC); type: biochemical, Tritirachium album; details: 40 min pre-incubation; for Mean (RFU/s): Proteinase K
T1 construct: purchased Roche

Chymotrypsin [2] = target: T2, Chymotrypsin (Bos taurus, UniProt P00766); assay: Chymotrypsin inhibition, fluorogenic substrate assay (Suc-Ala-Ala-Pro-Phe-AMC); type: biochemical; details: for Mean (RFU/s): Chymotrypsin
T2 construct: purchased Sigma-Aldrich

Chymotrypsin [3] = target: T2, Chymotrypsin; assay: Native metabolomics / native MS detection of chymotrypsin-ligand complexes; type: binding; details: for max. Ligand-protein ratio: replicates A, B, C
Method: For native metabolomics experiments, the same chromatographic parameters were used and in addition, 220 µL/min (setup A) or 150 µL/min (setup B) ammonium acetate buffer was infused post-column through a make-up pump and a PEEKT-splitter and enzyme solution was infused with 2 µL/min flow rate via the integrated syringe pump. ESI settings were set to 40 arb. units sheath gas flow, the auxiliary gas flow was set to 10 arb. units and sweep gas flow was set to 0 arb. units. The auxiliary gas temperature was set to 150 °C. The spray voltage was set to 3 kV and the inlet capillary was heated to 253 °C. S-lens level was set to 30 V applied. MS scan range was set to 2000-4000 m/z (setup A) and 2500–4000 m/z (setup B) with a resolution Rm/z 200 140,000 (setup A) and 120,000 (setup B) with 2 microscans. MS acquisition was performed in all-ion fragmentation (AIF) mode with Rm/z 200 with 20% HCD collision energy and an isolation window of 2000 –4000 m/z (setup A) or 2500–4000 m/z (setup B).
For native LC-MS data, multiple charged spectra were deconvoluted using the Xtract algorithm in Qualbrowser, part of the Xcalibur software (Thermo Scientific) and also using FLASHDeconv (version 2.0Beta) {Jeong, K. et al. FLASHDeconv: Ultrafast, High-Quality Feature Deconvolution for Top- Down Proteomics. Cell Syst 10, 213-218 e216 (2020).}. For Xtract algorithm, both deconvoluted native LC-MS and metabolomics LC-MS/MS.raw files were converted to the centroid.mzML file format using MSconvert of the proteowizard software package. For FLASHDeconv, the raw files were converted into centroid m/zML again using MSconvert software first. Then the converted mzML files were deconvolved to generate deconvolved.mzML format files. Feature finding of both file types was performed using a modified version of MZmine2.37 (corr.17.7). Feature tables from both intact protein mass and metabolomics data were matched by their retention time (RT) and an m/z offset corresponding to the mass of chymotrypsin (25234 Da) with an RT tolerance of 0.2 min and a mass tolerance of 4 Da.
To optimize ESI setting as well as the influence of NH4Acetate concentration and pH, we used molassamide as a test compound. For optimization of ESI settings, we performed flow injections without a column and ramped ESI aux gas temperature, in-source CID energy, S-lense RF voltage. Optimization of pH values over the entire LC gradient and peak intensities were both assessed using three different make-up buffers. Make-up buffer 1 was water, make-up buffer 2 was 10 mM NH4Acetate buffer, and make-up buffer 3 was 10 mM NH4Acetate buffer + 0.2% ammonium hydroxide, v/v. Effects of NH4Acetate concentration was assessed with an online mixed make-up flow (using Experimental Setup B) with the low-pressure gradient pump. As solvent A we used LC-MS grade water and 100 mM NH4Acetate as solvent B. Molassamide was prepared as 100 µM solutions from a 10 mM stock solution in DMSO by preparing a 1:100 dilution into solvent mixture 1 (water + 10% acetonitrile + 0.1% formic acid). Samples were analyzed as described in micro-flow LC-MS/MS data acquisition (setup A); 2 µL of each solution were injected into the mass spectrometer, while chymotrypsin (Sigma), dissolved in water to a final concentration of 2 mg/mL, was injected through the syringe pump at a flow rate of 2 µL/min. pH values were assessed by disconnecting the flow to the source and collecting ~30 µL of solvent every minute, then testing this value on pH paper.
Molassamide was prepared as 100 µM solutions from a 10 mM stock solution in DMSO by preparing a 1:100 dilution into solvent mixture 1 (water + 10% acetonitrile + 0.1% formic acid). From this 100 µM solution, dilutions were prepared at 10, 1, and 0.1 µM into solvent mixture 1. 2 µL of each solution were injected into the mass spectrometer. […]

Elastase = target: T3, Elastase (Sus scrofa, UniProt P00772); assay: Elastase inhibition, fluorogenic substrate assay (MeOSuc-Ala-Ala-Pro-Val-AMC); type: biochemical, Sus domesticus; details: 40 min pre-incubation; for Mean (RFU/s): Elastase
T3 construct: purchased Sigma-Aldrich

[4] = inhibitor concentration 0.0508053 nM
[5] = inhibitor concentration 0.152416 nM
[6] = inhibitor concentration 0.457247 nM
[7] = inhibitor concentration 1.37174 nM
[8] = inhibitor concentration 4.11523 nM
[9] = inhibitor concentration 12.3457 nM
[10] = inhibitor concentration 37.037 nM
[11] = inhibitor concentration 111.111 nM
[12] = inhibitor concentration 333.333 nM
[13] = inhibitor concentration 1000 nM
[14] = inhibitor concentration 3000 nM

T1 sequence (P06873 106-384): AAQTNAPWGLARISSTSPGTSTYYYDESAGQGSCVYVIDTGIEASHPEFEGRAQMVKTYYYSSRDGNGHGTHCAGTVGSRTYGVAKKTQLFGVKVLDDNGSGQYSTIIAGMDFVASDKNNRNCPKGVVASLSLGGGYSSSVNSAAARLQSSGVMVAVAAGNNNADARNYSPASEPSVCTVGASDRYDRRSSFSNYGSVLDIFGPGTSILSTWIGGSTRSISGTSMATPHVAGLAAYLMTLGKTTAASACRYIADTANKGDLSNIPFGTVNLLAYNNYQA
T3 sequence (P00772 27-266): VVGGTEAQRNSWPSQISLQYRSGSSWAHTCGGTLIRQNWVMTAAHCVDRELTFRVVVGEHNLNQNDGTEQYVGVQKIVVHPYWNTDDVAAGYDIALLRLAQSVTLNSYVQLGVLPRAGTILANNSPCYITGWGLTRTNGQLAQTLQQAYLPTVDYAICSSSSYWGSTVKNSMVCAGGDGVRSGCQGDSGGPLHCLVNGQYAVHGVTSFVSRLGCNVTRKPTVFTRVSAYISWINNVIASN

## C/C=C1\NC(=O)[C@@H](NC(=O)[C@@H](NC(=O)[C@H](C)NC(=O)CCC)[C@@H](C)O)[C@@H](C)OC(=O)[C@H](C(C)C)NC(=O)[C@H](Cc2ccc(O)cc2)N(C)C(=O)[C@H](Cc2ccccc2)N2C(=O)[C@H](CC[C@H]2O)NC1=O [Molassamide, molassamide]
Chymotrypsin [1]
  IC50: 234 nM
Proteinase K; mean, n = 3
  IC50: 21.6 nM
Proteinase K; [4]
  Mean (RFU/s): 6.609 RFU/s
Proteinase K; [5]
  Mean (RFU/s): 6.463 RFU/s
Proteinase K; [6]
  Mean (RFU/s): 6.371 RFU/s
Proteinase K; [7]
  Mean (RFU/s): 6.067 RFU/s
Proteinase K; [8]
  Mean (RFU/s): 5.597 RFU/s
Proteinase K; [9]
  Mean (RFU/s): 4.375 RFU/s
Proteinase K; [10]
  Mean (RFU/s): 2.174 RFU/s
Proteinase K; [11]
  Mean (RFU/s): 0.71 RFU/s
Proteinase K; [12]
  Mean (RFU/s): 0.19 RFU/s
Proteinase K; [13]
  Mean (RFU/s): 0.07 RFU/s
Proteinase K; [14]
  Mean (RFU/s): 0 RFU/s
Chymotrypsin [2]; 40 min pre-incubation, mean, n = 3, read-out: IC50 Chymotrypsin
  IC50: 863 nM
Chymotrypsin [2]; inhibitor concentration 0.0508053 nM, 40 min pre-incubation
  Mean (RFU/s): 5.082 RFU/s
Chymotrypsin [2]; inhibitor concentration 0.152416 nM, 40 min pre-incubation
  Mean (RFU/s): 5.023 RFU/s
Chymotrypsin [2]; inhibitor concentration 0.457247 nM, 40 min pre-incubation
  Mean (RFU/s): 5.172 RFU/s
Chymotrypsin [2]; inhibitor concentration 1.37174 nM, 40 min pre-incubation
  Mean (RFU/s): 5.411 RFU/s
Chymotrypsin [2]; inhibitor concentration 4.11523 nM, 40 min pre-incubation
  Mean (RFU/s): 5.346 RFU/s
Chymotrypsin [2]; inhibitor concentration 12.3457 nM, 40 min pre-incubation
  Mean (RFU/s): 5.257 RFU/s
Chymotrypsin [2]; inhibitor concentration 37.037 nM, 40 min pre-incubation
  Mean (RFU/s): 4.609 RFU/s
Chymotrypsin [2]; inhibitor concentration 111.111 nM, 40 min pre-incubation
  Mean (RFU/s): 4.56 RFU/s
Chymotrypsin [2]; inhibitor concentration 333.333 nM, 40 min pre-incubation
  Mean (RFU/s): 3.784 RFU/s
Chymotrypsin [2]; inhibitor concentration 1000 nM, 40 min pre-incubation
  Mean (RFU/s): 2.129 RFU/s
Chymotrypsin [2]; inhibitor concentration 3000 nM, 40 min pre-incubation
  Mean (RFU/s): 0.9597 RFU/s
Chymotrypsin [2]; Supplementary Table 5, compounds of this study, read-out: Chymotrypsin IC50
  IC50: 862 nM
Chymotrypsin [3]; HESI Aux Gas Temperature 40 °C
  Relative abundance Chymotrypsin-molassamide complex [%], Average: 32.7%
Chymotrypsin [3]; HESI Aux Gas Temperature 70 °C
  Relative abundance Chymotrypsin-molassamide complex [%], Average: 28.3%
Chymotrypsin [3]; HESI Aux Gas Temperature 100 °C
  Relative abundance Chymotrypsin-molassamide complex [%], Average: 32.3%
Chymotrypsin [3]; HESI Aux Gas Temperature 140 °C
  Relative abundance Chymotrypsin-molassamide complex [%], Average: 39.0%
Chymotrypsin [3]; HESI Aux Gas Temperature 170 °C
  Relative abundance Chymotrypsin-molassamide complex [%], Average: 34.0%
Chymotrypsin [3]; HESI Aux Gas Temperature 200 °C
  Relative abundance Chymotrypsin-molassamide complex [%], Average: 35.3%
Chymotrypsin [3]; HESI Aux Gas Temperature 250 °C
  Relative abundance Chymotrypsin-molassamide complex [%], Average: 27.7%
Chymotrypsin [3]; HESI Aux Gas Temperature 300 °C
  Relative abundance Chymotrypsin-molassamide complex [%], Average: 28.7%
Chymotrypsin [3]; In-Source CID Energy 0 eV
  Relative abundance Chymotrypsin-molassamide complex [%], Average: 27.7%
Chymotrypsin [3]; In-Source CID Energy 10 eV
  Relative abundance Chymotrypsin-molassamide complex [%], Average: 29.3%
Chymotrypsin [3]; In-Source CID Energy 20 eV
  Relative abundance Chymotrypsin-molassamide complex [%], Average: 33.0%
Chymotrypsin [3]; In-Source CID Energy 30 eV
  Relative abundance Chymotrypsin-molassamide complex [%], Average: 32.3%
Chymotrypsin [3]; In-Source CID Energy 40 eV
  Relative abundance Chymotrypsin-molassamide complex [%], Average: 30.7%
Chymotrypsin [3]; In-Source CID Energy 60 eV
  Relative abundance Chymotrypsin-molassamide complex [%], Average: 12.3%
Chymotrypsin [3]; In-Source CID Energy 80 eV
  Relative abundance Chymotrypsin-molassamide complex [%], Average: 1.3%
Chymotrypsin [3]; S-Lense RF level 10 %
  Relative abundance Chymotrypsin-molassamide complex [%], Average: 34.3%
Chymotrypsin [3]; S-Lense RF level 30 %
  Relative abundance Chymotrypsin-molassamide complex [%], Average: 31.0%
Chymotrypsin [3]; S-Lense RF level 50 %
  Relative abundance Chymotrypsin-molassamide complex [%], Average: 30.0%
Chymotrypsin [3]; S-Lense RF level 70 %
  Relative abundance Chymotrypsin-molassamide complex [%], Average: 40.7%
Chymotrypsin [3]; S-Lense RF level 90 %
  Relative abundance Chymotrypsin-molassamide complex [%], Average: 30.7%
Chymotrypsin [3]; concentration 0.01 µM
  max. Ligand-protein ratio: 0.00
Chymotrypsin [3]; concentration 0.10 µM
  max. Ligand-protein ratio: 0.0566 and 0.0543 and 0.05
Chymotrypsin [3]; concentration 1.00 µM
  max. Ligand-protein ratio: 0.25 and 0.22 and 0.26
Chymotrypsin [3]; concentration 6.67 µM
  max. Ligand-protein ratio: 0.77 (2×) and 0.82
Chymotrypsin [3]; concentration 12.50 µM
  max. Ligand-protein ratio: 0.98 and 0.93 and 0.99
Chymotrypsin [3]; concentration 20.00 µM
  max. Ligand-protein ratio: 0.94 (2×) and 1.00
Chymotrypsin [3]; concentration [µM] 0.1
  Peak Area Protein-Ligand-Complex: 6.16E+04
Chymotrypsin [3]; concentration [µM] 1
  Peak Area Protein-Ligand-Complex: 8.18E+05
Chymotrypsin [3]; concentration [µM] 10
  Peak Area Protein-Ligand-Complex: 1.09E+07
Chymotrypsin [3]; concentration [µM] 50
  Peak Area Protein-Ligand-Complex: 4.40E+07
Chymotrypsin [3]; concentration [µM] 100
  Peak Area Protein-Ligand-Complex: 7.00E+07
Elastase; mean, n = 3
  IC50: 37.6 nM
Elastase; [4]
  Mean (RFU/s): 0.8563 RFU/s
Elastase; [5]
  Mean (RFU/s): 0.8307 RFU/s
Elastase; [6]
  Mean (RFU/s): 0.841 RFU/s
Elastase; [7]
  Mean (RFU/s): 0.8127 RFU/s
Elastase; [8]
  Mean (RFU/s): 0.7663 RFU/s
Elastase; [9]
  Mean (RFU/s): 0.6947 RFU/s
Elastase; [10]
  Mean (RFU/s): 0.4253 RFU/s
Elastase; [11]
  Mean (RFU/s): 0.1337 RFU/s
Elastase; [12]
  Mean (RFU/s): 0.03867 RFU/s
Elastase; [13]
  Mean (RFU/s): 0 RFU/s
Elastase; [14]
  Mean (RFU/s): 0 RFU/s
